Reference: patent US5081253A, “Imidazo(4,5-C)pyridines as antiosteoporotic agents” (American Home Products Corporation, priority 1990, dated 1992)

Assays:
[1] = tested on: osteopenia induced by denervation of the sciatic nerve in rats; experiment: Denervation Induced Osteopenia in Rats; format: in vivo, rat (female Sprague Dawley CD)
Source text: The purpose of this assay is to evaluate the effect, in rats, of agents on the reduction in bone mass (osteopenia) induced by immobilization resulting from surgical severance (denervation) of the sciatic nerve.
The animals are housed in plastic cages (4 or 5 rats/cage) with food (rat purina 500 chow) and water ad libitum; 14/10 day/night cycle.
After one week of in-house acclimatization, the animals are randomly divided into groups of 6 to 10 rats/group. Each rat is weighed, anesthetized with an intraperitoneal administration of 100 mg/kg ketamine (Bristol Laboratories, Syracuse, N.Y.) and 0.75 mg/kg Acepromazine (Aveco, Ft. Dodge, Iowa). The left hind limb is shaved and denervated by making a lateral incision parallel to the femur and by surgically removing half of a centimeter of the sciatic nerve adjacent to caudofemoralis and adductor brevis muscles. The incision is closed with wound clips. After surgery, the rats are housed in cages with absorbent bedding to minimize additional trauma to the immobilized limb. A 24 hour post-surgery recovery period is allowed before the initiation of the drug treatment.
The concentration of the drug stock is calculated to be delivered in a volume of 0.1 mL/100 gram body weight. The drug solution or a uniform suspension is prepared in 1% Tween 80 in normal saline. The drugs are administered via oral or parenteral routes daily (five times a week) for four weeks.
A sequential triple labeling of mineralized tissue is employed to determine the osseous changes (especially the bone formation) and the mineralization rates. Each animal is administered 90 mg/kg Xylenol orange (Fisher Scientific Company), S.C., 15 mg/kg Calcein (Sigma Chemical Company), S.C. and 15 mg/kg Demeclocycline (Sigma Chemical Company), i.p., approximately 21 days, 10 days and 2 days prior to the termination of the study, respectively.
At the end of the fourth week, each rat is weighed, anesthetized with an intraperitoneal administration of 100 mg/kg ketamine with 0.75 mg/kg Acepromazine and approximately 4 mL of blood collected via cardiac puncture. The anesthetized rats are euthanized by exposure to carbon dioxide. The femora and tibiae from both limbs are dissected free of soft tissue. (i) Femora are ashed at ~1100° C. for 16 hours using a muffle furnace. --(ii) Proximal tibia are fixed, dehydrated and embedded undecalcified in a methyl methacrylate-glycol methacrylate mixture. Longitudinal tissue sections (10 microns) are prepared on a Polycut S microtome (Reichert). Staining is performed on free-floating sections using a modified Goldner's stain, which are then mounted and coverslipped.
Cancellous bone content in the proximal tibia is quantified (as two dimensional bone mineral area [B.Ar]) with an image analysis processing device (software developed by Drexel University).
The areas of the tibia selected for cancellous bone content evaluation are the primary and secondary spongiosa. To select and standardize this area for evaluation, the epiphyseal growth plate-metaphyseal junction is oriented parallel to the abscissa of the digitizing screen. Bone elements 1.7 mm (secondary spongiosa) and 0.2 mm (primary spongiosa) from the growth plate and equidistant from the flanking cortical elements are then quantified as described above. The total area evaluated is 2.30 mm wide and 1.45 mm deep, constituting a 3.34 mm^2 area.
Body weight, femur mass (dried or ashed) and trabecular (cancellous) bone mineral area (B.Ar) are determined.
The difference (both absolute and percent change) in femur mass and bone mineral area between intact (control) and denervated limbs of a treatment group are compared with that for the vehicle group using a one-way analysis of variance with Dunnett's test, or other multiple comparison methods.
The results are reported in Table I and II under the heading In Vivo.

[2] = tested on: Rat Limb Bones (basal bone resorption); experiment: Basal Bone Resorption Assay: 45Ca Release from Rat Limb Bones; format: cell-based; conditions: 10 μg/mL
Source text: The purpose of this assay is to test stimulators and inhibitors of bone resorption in vitro. The release of ^45 Ca from in vitro labeled murine bone explants into the culture media is taken as an index of bone resorption.
Rat pups are labelled […] by injecting pregnant dams (18 days) with 100 μCi of ^45 Ca.
Two days after the initiation of labelling, the dam is anesthetized with halothane and killed by cervical dislocation. The pups are ablated and quickly decapitated. The calvaria (frontal and parietal bones), forelimbs (containing radii and ulnae), and hind limbs (tibiae) are removed and placed in control media in a petri dish. Bones are debrided of soft tissue by a combination of blunt dissection, and gentle rolling on bibulous paper, taking care not to disturb the periosteum. Cartilaginous ends are cut off long bones. Calvaria are cut in half along midline suture. Bones are separated into 3 categories: calvaria halves, Tibiae and ulnae/radii. Groups of eight (per bone group) are randomly placed in 24-well culture plates containing 0.5 mL of control media. Cultures are maintained at 37° C. in a humidified incubator of 95% air: 5% CO2.
These bones are incubated for 24 hours, media is aspirated from the bones and replaced with fresh media containing test substances. Each bone group has a control group of 8 and a dead bone group of 8. The devitalized cultures are obtained by heating the bones in medium at 55° C. for 60 minutes. The bones are incubated at 37° C. for an additional 72 hours. At the end of this period a 100 microliter aliquot of media is removed and placed in a scintillation vial. Ten mL of Aquasol is added, the ^45 Ca is quantified in a scintillation spectrometer. Bones are rinsed in saline, placed in a scintillation vial, hydrolyzed overnight in 0.75 mL 6N HCl at room temperature. The hydrolyzed bone solution is neutralized by the addition of 2.25 mL of 2N NaOH, followed by 10 mL of Aquasol, the ^45 Ca content is determined by scintillation spectrometry.
Analysis: ^45 Ca release into culture medium from the 24-96 hour period is individually compared to ^45 Ca release in control cultures and to devitalized bone via Dunnett's test. […]

[3] = tested on: Rat Limb Bones (PTH induced bone resorption); experiment: Bone Resorption Assay: 45Ca Release from Rat Limb Bones (PTH Induced); format: cell-based, rat (Sprague-Dawley CD); conditions: 10 μg/mL
Experimental: The purpose of this assay is to identify compounds that inhibit basal or stimulated bone resorption in culture.
The ability of 2-substituted-imidazo[4,5-c]pyridines to modify the process of bone resorption was evaluated essentially as described by L.G. Raisz, Bone resorption in tissue culture. Factors influencing the response to parathyroid hormone.
Timed pregnant Sprague-Dawley CD® rats (Charles River) are administered 100 μCi ^45 CaCl2 (NEN calcium -45 NEZ-013) in 100 μL of 0.9% saline, subcutaneously, on day 18 of gestation. The rats are sacrificed the following day by CO2 asphyxiation. The fetuses are removed and the right forelimbs excised and placed in a Petri dish containing ice cold explant medium consisting of modified BGJb -Fitton Jackson media (custom formulation, Gibco No. 78-0088) adjusted to pH 7.3 to which 10 mM TES is added. […] Under a dissecting microscope, the bones are gently cleaned of adherent tissue and the cartilaginous ends removed. Incubation and drug treatment. […] The preincubation medium is brought to 37° C. prior to transfer of bones. The preincubation medium consists of the modified BGJb medium (with salts and glucose as above), pH 7.3, containing 29 mM NaHCO3. […] For compounds that require nonaqueous solvents, dilutions are made from the appropriate stock solution with medium. In these instances, basal and bone resorption stimulated controls exposed to an equivalent concentration of the vehicle are included. […] The right ulna and radius from each fetus are used. Both bones are subjected to the same treatment and each treatment group consists of bones from 4 or more fetuses. Treatments are randomly assigned using a preclinical statistics program (PS-ALLOC). After a 48 hour incubation at 37° C. in 5% CO2, the bones are removed from the medium and extracted in 0.5 mL of 0.1N HCl for 1 or more days. Duplicate 150 μL aliquots of the incubation medium and the bone extract are analyzed for ^45 Ca radioactivity in 5 mL of liquid scintillation cocktail.
The percentage of bone ^45 Ca released into the medium is determined as follows: [formula] […]

| Structure (SMILES) | Inhibition of Bone Resorption, In Vivo ([1]; Table II, 25 mg/kg, p.o.) | Inhibition of Bone Resorption, Basal ([2]; Table II) | Inhibition of Bone Resorption, PTH Induced ([3]; Table II) | Inhibition of Bone Resorption, In Vivo ([1]; po, 672 h) | Inhibition of Bone Resorption, Basal ([2]; Table I) | Inhibition of Bone Resorption, PTH Induced ([3]; Table I) |
| --- | --- | --- | --- | --- | --- | --- |
| Fc1ccc(CSc2nc3cnccc3[nH]2)cc1F [Example 30, 2-[[(3,4-Difluorophenyl)methyl]thio]-1H-imidazo[4,5-c]pyridine] | Inactive | Inactive | Inactive |  |  |  |
| Cc1cc(C)c(C[S+]([O-])c2nc3cnccc3[nH]2)c(C)c1 (stereo not drawn) [Example 19, 2-[[(2,4,6-Trimethylphenyl)methyl]sulfinyl]-1H-imidazo[4,5-c]pyridine] |  |  |  | Inactive | Active | Active |
| COc1cccc(CS(=O)(=O)c2nc3cnccc3[nH]2)c1 [Example 4] |  |  |  | Inactive | Marginal | Active |
| [O-][S+](Cc1ccc(Br)cc1F)c1nc2cnccc2[nH]1 (stereo not drawn) [Example 21, 2-[[(4-Bromo-2-fluorophenyl)methyl]sulfinyl]-1H-imidazo[4,5-c]pyridine] |  |  |  | Inactive | Active | Active |
| [O-][S+](Cc1ccccc1)c1nc2cnccc2[nH]1 (stereo not drawn) [Example 12, 2-[[(Phenyl)methyl]sulfinyl]-1H-imidazo-[4,5-c]pyridine] |  |  |  | Inactive | Active | Active |
| [O-][S+](Cc1ccc(F)c(F)c1)c1nc2cnccc2[nH]1 (stereo not drawn) [Example 31, 2-[[(3,4-Difluorophenyl)methyl]sulfinyl]-1H-imidazo[4,5-c]-pyridine-One Tenth Hydrate] |  |  |  | Inactive | Active | Active |
